Reference: patent US10023484B2, “Use of peracetic acid/hydrogen peroxide and peroxide-reducing agents for treatment of drilling fluids, frac fluids, flowback water and disposal water” (Ecolab USA Inc., priority 2012, dated 2018)

What was measured:
[1] = Titration of POAA consumption in water mixtures (Example 6); format: physicochemical; conditions: 1 minute
[2] = test system: fracking water mixtures; assay: Micro efficacy baseline in fracking water mixtures without catalase (Example 3); format: cell-based
Method: The impact of water pretreatment with 500 ppm of the EnviroSan product (75 ppm POAA) on micro efficacy in various fracking water mixtures were evaluated. The example represents a baseline data set of various water treatment options according to the invention. Table 2 and FIG. 3 show the average log reduction in various slick water treatments with varying ppm PAA (without any catalase treatment or pretreatment), representing a baseline data set.

[3] = Effect of catalase and treatment sequence on peracid stability in 80/20 water blends (Example 10); format: physicochemical; conditions: theoretical initial POAA 82 ppm
Excerpt: The effect of catalase on the peracid stability within treated waters was further evaluated. Water blends of 80/20 (80% fresh water/20% produced water) were employed to analyze the impact on various treatment sequences set forth in Table 14.
Due to the efficacious results shown in FIG. 15, the same methods were used to further evaluate a pretreatment using a lower concentration of the catalase as shown in Table 15.

[4] = test system: fracking water mixtures; assay: Micro efficacy: POAA dosed for 30 ppm residual versus POAA pretreated with catalase (Example 8); format: cell-based
Method: A micro efficacy comparison of POAA added at levels to target 30 ppm POAA residuals at 5 minutes versus POAA pretreated with catalase was conducted as set forth in Table 12.

[5] = test system: Pseudomonas aeruginosa ATCC 15442; assay: Micro efficacy at 30 ppm POAA EnviroSan with/without catalase, with/without water pretreatment (Example 7); format: cell-based; conditions: no pretreatment, 30 ppm PAA
Method: Additional micro efficacy performance was evaluated to confirm the improved micro efficacy observed in Example 6 when using increasing amounts of produced water with the dosing static initial concentrations of POAA (30 ppm or 40 ppm) with catalase. Improved micro efficacy with increased amounts of produced water present in a mixture is a highly counterintuitive result and was unexpected. Under normal conditions, it would be expected to have decreased micro efficacy as the amount of produced water (e.g. recycled) increases and the amount of POAA remains static as a result of the increased contamination found in produced water as opposed to fresh water sources. As a result, subsequent evaluation observed the activity of the water itself against a spiked culture of P. aeruginosa over a 1 hour exposure period to determine whether the produced water itself has an antimicrobial present.
All water mixtures were treated with an initial concentration of 30 ppm POAA EnviroSan, both with and without the addition of catalase. The data set evaluates whether there is a significant difference in micro activity generated between treatments of EnviroSan alone vs. EnviroSan pre-reduced with catalase.
All ratios of fracking water mixtures tested (100/0, 90/10, 80/20 & 70/30) were freshly mixed solutions, as well as solutions mixed and pretreated with 500 ppm EnviroSan product more than 1 hour before the start of the micro evaluation, in order to observe if a pretreatment step is of value for micro performance compared to those mixtures not pretreated. The test system (P. aeruginosa and natural water) described in Example 5 was again utilized. Water mixtures as outlined in Table 9 were provided (showing the percentage of 100 mL of each water sample type).
The testing methods of Example 5 were utilized for the chemically treated water samples, differing only in the combination of the 10 mL inoculated water mixtures with appropriate volumes of the EnviroSan with or without catalase to achieve 30 ppm POAA residual to each test tube in timed intervals and mixed. The methods of Example 5 were employed to make the EnviroSan with catalase stock solutions. In comparison, for the water samples that were not chemically treated, 9.9 mL of test water mixture was dispensed into 2 individual test tubes. 0.10 mL of an approximate 10^8 CFU/mL culture of P. aeruginosa was added in timed intervals and mixed thoroughly. Then 1 mL samples were neutralized in 9 mL of 0.5% sodium thiosulfate, followed by serial dilution and enumeration after 2.5 minutes, 5 minutes and 60 minute exposure times.
In addition, data for enumeration of water samples for antimicrobial activity against P. aeruginosa over 60 minutes exposure are also summarized in Table 10.

[6] = Pretreated, catalase CA 400 5.8 ppm
[7] = Simult. Add, catalase CA 400 10 ppm
[8] = Simult. Add, catalase CA 400 100 ppm

What does the source list for CC(=O)OO [POAA, peracetic acid]?
Actual Titrated Concentration (ppm POAA) ([1]; 70% Fresh/30% Produced, desired 30 ppm POAA): 7 ppm; Actual Titrated Concentration (ppm POAA) ([1]; 70% Fresh/30% Produced, desired 40 ppm POAA): 12 ppm; Actual Titrated Concentration (ppm POAA) ([1]; 80% Fresh/20% Produced, desired 30 ppm POAA): 13 ppm; Actual Titrated Concentration (ppm POAA) ([1]; 80% Fresh/20% Produced, desired 40 ppm POAA): 21 ppm; Actual Titrated Concentration (ppm POAA) ([1]; 90% Fresh/10% Produced, desired 30 ppm POAA): 21 ppm; Actual Titrated Concentration (ppm POAA) ([1]; 90% Fresh/10% Produced, desired 40 ppm POAA): 30 ppm; Avg. Log10 Reduction ([2]; 75 ppm PAA pretreatment, 10% reuse H2O, 29 ppm POAA, NO catalase, 2.5 minutes): 6.45; Avg. Log10 Reduction ([2]; 75 ppm PAA pretreatment, 10% reuse H2O, 29 ppm POAA, NO catalase, 5 minutes): 6.71; Avg. Log10 Reduction ([2]; 75 ppm PAA pretreatment, 20% reuse H2O, 47 ppm PAA, NO catalase, 2.5 minutes): 6.42; Avg. Log10 Reduction ([2]; 75 ppm PAA pretreatment, 20% reuse H2O, 47 ppm PAA, NO catalase, 5 minutes): 6.55; Avg. Log10 Reduction ([2]; 75 ppm PAA pretreatment, 30% reuse H2O, 86 ppm POAA, NO catalase, 2.5 minutes): 6.47; Avg. Log10 Reduction ([2]; 75 ppm PAA pretreatment, 30% reuse H2O, 86 ppm POAA, NO catalase, 5 minutes): 6.41; Avg. Log10 Reduction ([2]; no holding tank pretreatment, 0% reuse H2O, 22 ppm POAA, 2.5 minutes): 5.53; Avg. Log10 Reduction ([2]; no holding tank pretreatment, 0% reuse H2O, 22 ppm POAA, 5 minutes): 5.75; Avg. Log10 Reduction ([2]; no pretreatment, 10% reuse H2O, 36 ppm POAA, 2.5 minutes): 4.32; Avg. Log10 Reduction ([2]; no pretreatment, 10% reuse H2O, 36 ppm POAA, 5 minutes): 4.72; Avg. Log10 Reduction ([2]; no pretreatment, 20% reuse H2O, 86 ppm POAA, 2.5 minutes): 4.57; Avg. Log10 Reduction ([2]; no pretreatment, 20% reuse H2O, 86 ppm POAA, 5 minutes): 4.64; Avg. Log10 Reduction ([2]; no pretreatment, 30% reuse H2O, 138 ppm POAA, 2.5 minutes): 4.12; Avg. Log10 Reduction ([2]; no pretreatment, 30% reuse H2O, 138 ppm POAA, 5 minutes): 5.00; POAA Meas'd. at 1 min. ([3]; NA, catalase 0 ppm): 56 ppm; POAA Meas'd. at 4 min. ([3]; NA, catalase 0 ppm): 31 ppm; POAA Meas'd. at 5 min. ([3]; NA, catalase 0 ppm): 23 ppm; POAA Meas'd. at 6 min. ([3]; NA, catalase 0 ppm): 17 ppm; POAA Meas'd. at 1 min. [3, 6]: 76 ppm; POAA Meas'd. at 4 min. [3, 6]: 75 ppm; POAA Meas'd. at 5 min. [3, 6]: 75 ppm; POAA Meas'd. at 6 min. [3, 6]: 75 ppm; POAA Meas'd. at 1 min. [3, 7]: 63 ppm; POAA Meas'd. at 4 min. [3, 7]: 34 ppm; POAA Meas'd. at 5 min. [3, 7]: 31 ppm; POAA Meas'd. at 6 min. [3, 7]: 26 ppm; POAA Meas'd. at 1 min. [3, 8]: 66 ppm; POAA Meas'd. at 4 min. [3, 8]: 61 ppm; POAA Meas'd. at 5 min. [3, 8]: 65 ppm; POAA Meas'd. at 6 min. [3, 8]: 58 ppm; Avg. Log10 Reduction ([4]; 10% reuse H2O, 30 ppm PAA, Catalase, 2.5 minutes): 5.29; Avg. Log10 Reduction ([4]; 10% reuse H2O, 30 ppm PAA, Catalase, 5 minutes): 5.96; Avg. Log10 Reduction ([4]; 10% reuse H2O, 46 ppm PAA, NO Catalase, 2.5 minutes): 4.32; Avg. Log10 Reduction ([4]; 10% reuse H2O, 46 ppm PAA, NO Catalase, 5 minutes): 4.72; Avg. Log10 Reduction ([4]; 20% reuse H2O, 30 ppm PAA, Catalase, 2.5 minutes): 5.73; Avg. Log10 Reduction ([4]; 20% reuse H2O, 30 ppm PAA, Catalase, 5 minutes): 6.36; Avg. Log10 Reduction ([4]; 20% reuse H2O, 86 ppm PAA, NO Catalase, 2.5 minutes): 4.57; Avg. Log10 Reduction ([4]; 20% reuse H2O, 86 ppm PAA, NO Catalase, 5 minutes): 4.64; Avg. Log10 Reduction ([4]; 30% reuse H2O, 30 ppm PAA, Catalase, 2.5 minutes): 5.30; Avg. Log10 Reduction ([4]; 30% reuse H2O, 30 ppm PAA, Catalase, 5 minutes): 5.98; Avg. Log10 Reduction ([4]; 30% reuse H2O, 138 ppm PAA, NO Catalase, 2.5 minutes): 4.12; Avg. Log10 Reduction ([4]; 30% reuse H2O, 138 ppm PAA, NO Catalase, 5 minutes): 5.00; Avg. Log10 Reduction ([5]; 0% reuse H2O, Catalase, 2.5 minutes): 4.62; Avg. Log10 Reduction ([5]; 0% reuse H2O, Catalase, 5 minutes): 6.22; Avg. Log10 Reduction ([5]; 0% reuse H2O, NO Catalase, 2.5 minutes): 4.64; Avg. Log10 Reduction ([5]; 0% reuse H2O, NO Catalase, 5 minutes): 6.32; Avg. Log10 Reduction ([5]; 10% reuse H2O, Catalase, 2.5 minutes): 5.29; Avg. Log10 Reduction ([5]; 10% reuse H2O, Catalase, 5 minutes): 5.96; Avg. Log10 Reduction ([5]; 10% reuse H2O, NO Catalase, 2.5 minutes): 3.09; Avg. Log10 Reduction ([5]; 10% reuse H2O, NO Catalase, 5 minutes): 3.91; Avg. Log10 Reduction ([5]; 20% reuse H2O, Catalase, 2.5 minutes): 5.73; Avg. Log10 Reduction ([5]; 20% reuse H2O, Catalase, 5 minutes): 6.36; Avg. Log10 Reduction ([5]; 20% reuse H2O, NO Catalase, 2.5 minutes): 2.19; Avg. Log10 Reduction ([5]; 20% reuse H2O, NO Catalase, 5 minutes): 2.38; Avg. Log10 Reduction ([5]; 30% reuse H2O, Catalase, 2.5 minutes): 5.30; Avg. Log10 Reduction ([5]; 30% reuse H2O, Catalase, 5 minutes): 5.98; Avg. Log10 Reduction ([5]; 30% reuse H2O, NO Catalase, 2.5 minutes): 1.88; Avg. Log10 Reduction ([5]; 30% reuse H2O, NO Catalase, 5 minutes): 1.93
